Experiments:
Test in all cases: drug sensitivity score (DSS) (DSS (unitless, 0-50 scale)); higher = more sensitive (stronger viability inhibition); extreme values may be limits of the assay
Settings in all cases: 72 h; culture: 2D
Bowes = system: Bowes
How it was run: (§1)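 Drug sensitivity scores, modified area-under-curve measures, were derived from dose-response curves fitted in the in-house Breeze software. The curves came from melanoma cell lines and patient-derived melanoma cultures (1000–1500 cells per well) grown in 2D in 384-well plates holding a 527-compound oncology library. Each compound was dissolved in DMSO or water and tested at five concentrations across a 10,000-fold range. Viability was read by CellTiter-Glo luminescence after 72 h at 37 °C.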

FM-MEL-2 = system: FM-MEL-2
How it was run: as §1

FM-MEL-3 = system: FM-MEL-3
How it was run: as §1

FM-MEL-6 = system: FM-MEL-6
How it was run: as §1

SK-MEL-28 = system: SK-MEL-28
How it was run: as §1

SK-MEL-2 = system: SK-MEL-2
How it was run: as §1

WM165 = system: WM165
How it was run: as §1

WM852 = system: WM852
How it was run: as §1

Row | SMILES | drug sensitivity score (Bowes) | drug sensitivity score (FM-MEL-2) | drug sensitivity score (FM-MEL-3) | drug sensitivity score (FM-MEL-6) | drug sensitivity score (SK-MEL-28) | drug sensitivity score (SK-MEL-2) | drug sensitivity score (WM165) | drug sensitivity score (WM852)
1 | CC(C)(C)C[C@@H]1N[C@@H](C(=O)N[C@H]2CC[C@H](O)CC2)[C@H](c2cccc(Cl)c2F)[C@]12C(=O)Nc1cc(Cl)ccc12 | 2.2 | 3.1 | 16.6 | 0 | 0 | 0 | 15.9 | 0
2 | CC(C)(C)c1cc(NC(=O)Nc2ccc(Oc3ccnc4[nH]c(=O)cnc34)cc2F)n(-c2ccccc2)n1 | 10.7 | 11.6 | 14.5 | 4.2 | 10.3 | 4.5 | 12.6 | 5.3
3 | CCOc1ccn(-c2ccc(F)cc2)c(=O)c1C(=O)Nc1ccc(Oc2ccnc(N)c2Cl)c(F)c1 | 0 | 0 | 0 | 0 | 0 | 0 | 0 | 0
4 | CC[C@@H]1[C@H](F)C(=O)N[C@@H]1COc1nccc2cc(C(N)=O)c(OC)cc12 | 1.4 | 1.1 | 0.2 | 0 | 0 | 0 | 1.7 | 0.6
5 | CCc1cncnc1N1CCN(Cc2nc3ccc(C(F)(F)F)cc3[nH]2)CC1 | 2.1 | 0.5 | 1.7 | 0.7 | 0 | 0 | 0 | 3.3
6 | CCn1c(-c2nonc2N)nc2c(C#CC(C)(C)O)ncc(OC[C@H]3CCCNC3)c21 | 1 | 1 | 1.8 | 0 | 0 | 0 | 3.4 | 0
7 | CCn1c(-c2nonc2N)nc2cnc(Oc3cccc(NC(=O)c4ccc(OCCN5CCOCC5)cc4)c3)cc21 | 0 | 2.6 | 4.3 | 0.3 | 1.1 | 0 | 5.2 | 4.6
8 | CCn1c(C(=O)N(C2CC2)C2CC2)cc2c3c(ncn3C)c(Nc3cc(C)n(C)n3)nc21 | 0 | 2.3 | 0 | 0.8 | 0.4 | 0 | 0 | 0
9 | CCn1cc(-c2ccnc3[nH]c(-c4cccc(CN(C)C)c4)cc23)c(-c2ccc(NC(=O)N(C)C)cc2)n1 | 2.7 | 0 | 0 | 0 | 0.1 | 0 | 6 | 0
10 | CN(C)CC#Cc1ccc(OCCCc2sc(N3CCc4cccc(C(=O)Nc5nc6ccccc6s5)c4C3)nc2C(=O)O)c(F)c1 | 0.5 | 4.6 | 16.7 | 0.7 | 0 | 0 | 0.2 | 0
11 | CN(c1ncccc1CNc1nc(Nc2ccc3c(c2)CC(=O)N3)ncc1C(F)(F)F)S(C)(=O)=O | 6.4 | 3 | 7.1 | 5.2 | 4.7 | 0 | 9.1 | 5.3
12 | CN1CCN(C2CCC(n3cc(-c4ccc(Oc5ccccc5)cc4)c4c(N)ncnc43)CC2)CC1 (stereo not given) | 10.1 | 6.6 | 7.7 | 7.2 | 8 | 5 | 9.4 | 9.2
13 | CNC(=O)c1ccc(C)c(-n2c(C)cc(OCc3ccc(F)cc3F)c(Br)c2=O)c1 | 0 | 0 | 0 | 0 | 0 | 0 | 0 | 0
14 | CNC(=O)c1ccccc1Nc1nc(Nc2ccc3c(c2OC)CCC[C@H](N2CCN(CCO)CC2)C3)ncc1Cl | 8.2 | 7.2 | 8.6 | 7.6 | 7.9 | 4.5 | 9.2 | 7.7
15 | CNS(=O)(=O)Nc1nccc(Cc2c(C)c3ccc(Oc4ncccn4)cc3oc2=O)c1F | 0.6 | 6.3 | 10.7 | 0.2 | 3.2 | 4.2 | 3.2 | 0
16 | CNc1nc(-c2ccc3c(N)n[nH]c3c2)cc(N2C[C@@H](C(=O)NC3CCCCC3)CC[C@H]2C)n1 | 0 | 1.8 | 0 | 0 | 1.5 | 0 | 0.4 | 0
17 | CONC(=O)c1ccccc1Nc1cc(Nc2cc(C)nn2C(C)C)ncc1Cl | 0.5 | 0.2 | 1.5 | 0 | 0 | 0 | 0.1 | 0
18 | CO[C@@H](C)Cn1c(=O)n(C)c2cnc3ccc(-c4cncc(C(C)(C)O)c4)cc3c21 | 10.4 | 9.6 | 8.9 | 9.3 | 7.9 | 7.3 | 12 | 7.5
19 | COc1cc2ncnc(Oc3cccc(NC(=O)Nc4cc(C(C)(C)C(F)(F)F)on4)c3)c2cc1OC | 0 | 7.6 | 15 | 2 | 0 | 0 | 0 | 3.3
20 | COc1ccc(Cn2ccc3ccc(C(=O)NO)cc32)cc1 | 0 | 0 | 0.3 | 0 | 0.2 | 0 | 1.6 | 0.6
21 | COc1ccc2[nH]cc(/C=C3\C(=O)Nc4ccc(NC(=O)CCN5CCCCC5)cc43)c2c1 | 5.9 | 12.6 | 5.6 | 5 | 8.6 | 4.6 | 8.8 | 11.1
22 | C[C@@H](Oc1cc(-n2cnc3ccc(CN4CCN(C)CC4)cc32)sc1C(N)=O)c1ccccc1C(F)(F)F | 27.9 | 5 | 1.7 | 10 | 8.1 | 10.1 | 25.6 | 22.8
23 | C[C@@H](Oc1ccc2[nH]nc(/C=C/c3cnn(CCO)c3)c2c1)c1c(Cl)cncc1Cl | 6 | 0 | 2.1 | 2 | 1.3 | 0.3 | 4.3 | 3.2

Row | SMILES | drug sensitivity score (Bowes) | drug sensitivity score (FM-MEL-2) | drug sensitivity score (FM-MEL-3) | drug sensitivity score (FM-MEL-6) | drug sensitivity score (SK-MEL-28) | drug sensitivity score (SK-MEL-2) | drug sensitivity score (WM165) | drug sensitivity score (WM852)
24 | C[C@@H]1CN(CC(=O)Nc2ccc3c(c2)Cc2cccc(-c4cc(=O)cc(N5CCOCC5)o4)c2S3)C[C@H](C)O1 | 2.5 | 1.5 | 1.2 | 1 | 3.4 | 0 | 1.1 | 2.6
25 | C[C@H]1C[C@@H](n2c(Nc3ccc(OC(F)(F)F)cc3)nc3cc(CCC(=O)O)ccc32)CC(C)(C)C1 | 0 | 0 | 4.5 | 0 | 0 | 0 | 0 | 0
26 | C[C@H]1Oc2cc(cnc2N)-c2c(nn(C)c2C#N)CN(C)C(=O)c2ccc(F)cc21 | 0.1 | 0.9 | 2.4 | 0.6 | 0 | 0 | 0.2 | 0
27 | Cc1c(-c2c(-c3ccc(F)o3)sc3ncnc(O[C@H](Cc4ccccc4OCc4ccnn4CC(F)(F)F)C(=O)O)c23)ccc(OCCN2CCN(C)CC2)c1Cl | 16.9 | 3.2 | 8.7 | 1.9 | 0 | 5.3 | 0 | 0
28 | Cc1c(-c2ccc(N3CCc4cccc(C(=O)Nc5nc6ccccc6s5)c4C3)nc2C(=O)O)cnn1CC12CC3CC(CC(C3)C1)C2 | 0 | 1.5 | 6.7 | 0 | 0 | 0 | 0 | 0
29 | Cc1c(Cn2c(C)nc3c(C(=O)O)cc(N4CCOCC4)cc32)cccc1C(F)(F)F | 0 | 0 | 0 | 0 | 0.3 | 0 | 0 | 0
30 | Cc1ccc(C(=O)N(CCCN)[C@@H](c2oc3cc(Cl)ccc3c(=O)c2Cc2ccccc2)C(C)C)cc1 | 7.7 | 3.9 | 2.1 | 5.4 | 0.9 | 10 | 4.3 | 4.5
31 | Cc1cccc(CC(=O)N2CCc3c2ccc(-c2cn(C)c4ncnc(N)c24)c3F)n1 | 0 | 0 | 0.9 | 0.1 | 0 | 0 | 0 | 3.7
32 | Cc1nc(Nc2n[nH]c3c2CN(C(=O)N[C@H](CN(C)C)c2ccccc2)C3(C)C)c2sccc2n1 | 18.6 | 11.8 | 17.5 | 14.8 | 18.4 | 12.3 | 26.9 | 9.9
33 | Cc1nn(C)c(COc2ccc(N3CCN(S(=O)(=O)N(C)C)CC3)cc2)c1-c1cccc2c(CCCOc3cccc4ccccc34)c(C(=O)O)n(CCN3CCOCC3)c12 | 6.7 | 8 | 7.8 | 7.8 | 5.6 | 4.6 | 6.4 | 5.4
34 | Cn1cc(-c2ccc(F)c(C(F)(F)F)c2)nc1C1CCN(c2ncnc3[nH]ncc23)CC1 | 0 | 0 | 0 | 0 | 0 | 0 | 0 | 0
35 | NCC(=O)Nc1ccc(-n2nc(C(F)(F)F)cc2-c2ccc3c(ccc4ccccc43)c2)cc1 | 0 | 0.4 | 0 | 0.4 | 2.5 | 0 | 3.4 | 0
36 | NC[C@@](O)(c1ccc(Cl)cc1)c1ccc(-c2cn[nH]c2)cc1 | 0 | 1.4 | 0 | 4 | 1.7 | 0 | 2.1 | 0.6
37 | Nc1nccc(-c2c(-c3ccc(F)cc3)ncn2C2CCCCC2)n1 | 0 | 0 | 0 | 0 | 0 | 0 | 0 | 0
38 | Nc1ncnc2c1c(COc1cccc(Cl)c1)nn2C1CCOCC1 | 0 | 0.2 | 0 | 0.7 | 0 | 0 | 0 | 0.8
39 | O=C(NC[C@H](O)CN1CCc2ccccc2C1)c1cc(NC2COC2)ncn1 | 4.7 | 0.4 | 1.4 | 0.5 | 0.3 | 0 | 0 | 0
40 | O=C(NCc1ccncc1)C12CC3CC(C1)CC(c1ccc(Cl)cc1)(C3)C2 | 5.2 | 2 | 7.6 | 1.2 | 2.6 | 2 | 6.1 | 4.3
41 | O=C(NOC[C@H](O)CO)c1ccc(F)c(F)c1Nc1ccc(I)cc1F | 0.5 | 14.5 | 26.8 | 11.4 | 18 | 11.1 | 18.6 | 3.8
42 | O=C(O)c1ccc(-c2c[nH]c3ncc(-c4ccccc4)cc23)cc1C1CCCC1 | 0 | 0 | 0 | 0 | 0.7 | 0 | 1.2 | 0
43 | O=C(O)c1ccc(CN2CCC(CN[C@@H]3C[C@H]3c3ccccc3)CC2)cc1 | 0 | 0 | 0 | 0 | 0 | 0 | 0 | 0
44 | O=C1Cc2cc(C(=O)NC3C[C@H]4CC[C@@H](C3)N4S(=O)(=O)CC3CCN(CCCC(F)(F)F)CC3)c(Cl)cc2N1 (stereo not given in full) | 0.3 | 0 | 0.7 | 0 | 0.2 | 0 | 0 | 0
45 | O=c1[nH]c(C2CCCN2)nc2c1oc1ccc(Cl)cc12 (stereo not given) | 0 | 0.5 | 0 | 0 | 0 | 0 | 0.7 | 0

Reference: the supplement of paper PMC8633005
